Test results as given in patent US20230321103A1, “COMPOUND FOR INHIBITING MUTANT EGFR AND USE THEREOF” (East China University of Science and Technology, priority 2020, published 2023).
Values belong to the compound of their own block, whether it stands above or below them.

What was measured:
[1] = target: T1, EGFR (Homo sapiens, UniProt P00533); assay: Kinase spectrum evaluation, radiometric 33P-ATP kinase assay; type: biochemical; conditions: room temperature 2 h, 10 concentration gradients
T1 construct: purchased Reaction Biology Corporation (commissioned test)
Description: (§15) The substrate for the kinase reaction was placed in a freshly prepared reaction buffer and the co-factors required for the kinase reaction were added, and the buffer was prepared as: 20 mM HEPES (pH 7.5), 10 mM MgCl2, 1 mM EGTA, 0.02% Brij35, 0.02 mg/mL BSA, 0.1 mM Na3VO4, 2 mM DTT, 1% DMSO; afterwards, the kinase to be tested was added and gently shaken. The compound to be tested was dissolved in DMSO to the desired concentration and added to the above buffer containing the kinase/substrate using an autosampler Echo550. 33P-labeled ATP (33P-ATP at a final concentration of 0.01 μCi/μL) was added to the reaction system to initiate the kinase reaction at room temperature for 2 h. […] Kinase activity data were expressed as a percentage of the remaining kinase activity in the test sample, 10 concentration gradients were measured, a curve was fitted and IC50 values were calculated using Prism4 (GraphPad software).

[2] = target: T2, EGFR (A763_Y764insFHEA) (Homo sapiens, UniProt P00533, INS763FHEA); assay: as above; type: biochemical; conditions: room temperature 2 h, 10 concentration gradients
T2 construct: purchased Reaction Biology Corporation (commissioned test)
Description: as §15

[3] = target: T3, EGFR (A763_Y764insFQEA) (Homo sapiens, UniProt P00533, INS763FQEA); assay: as above; type: biochemical; conditions: room temperature 2 h, 10 concentration gradients
T3 construct: purchased Reaction Biology Corporation (commissioned test)
Description: as §15

[4] = target: T4, EGFR (d746-750) (Homo sapiens, UniProt P00533, DEL746-750); assay: as above; type: biochemical; conditions: room temperature 2 h, 10 concentration gradients
T4 construct: purchased Reaction Biology Corporation (commissioned test)
Description: as §15

[5] = target: T5, EGFR (d747-749/A750P) (Homo sapiens, UniProt P00533, A750P/DEL747-749); assay: as above; type: biochemical; conditions: room temperature 2 h, 10 concentration gradients
T5 construct: purchased Reaction Biology Corporation (commissioned test)
Description: as §15

[6] = target: T6, EGFR (D770_N771insNPG) (Homo sapiens, UniProt P00533, INS770NPG); assay: as above; type: biochemical; conditions: room temperature 2 h, 10 concentration gradients
T6 construct: purchased Reaction Biology Corporation (commissioned test)
Description: as §15

[7] = target: T7, EGFR (D770_N771insNPG/T790M) (Homo sapiens, UniProt P00533, INS770NPG/T790M); assay: as above; type: biochemical; conditions: room temperature 2 h, 10 concentration gradients
T7 construct: purchased Reaction Biology Corporation (commissioned test)
Description: as §15

[8] = target: T8, EGFR (G719C) (Homo sapiens, UniProt P00533, G719C); assay: as above; type: biochemical; conditions: room temperature 2 h, 10 concentration gradients
T8 construct: purchased Reaction Biology Corporation (commissioned test)
Description: as §15

[9] = target: T9, EGFR (G719S) (Homo sapiens, UniProt P00533, G719S); assay: as above; type: biochemical; conditions: room temperature 2 h, 10 concentration gradients
T9 construct: purchased Reaction Biology Corporation (commissioned test)
Description: as §15

[10] = target: T10, EGFR (L858R) (Homo sapiens, UniProt P00533, L858R); assay: as above; type: biochemical; conditions: room temperature 2 h, 10 concentration gradients
T10 construct: purchased Reaction Biology Corporation (commissioned test)
Description: as §15

[11] = target: T11, ERBB2 (D769Y) (Homo sapiens, UniProt P04626, D769Y); assay: as above; type: biochemical; conditions: room temperature 2 h, 10 concentration gradients
T11 construct: purchased Reaction Biology Corporation (commissioned test)
Description: as §15

[12] = target: T12, ERBB2 (V777_G778insCG) (Homo sapiens, UniProt P04626, INS777CG); assay: as above; type: biochemical; conditions: room temperature 2 h, 10 concentration gradients
T12 construct: purchased Reaction Biology Corporation (commissioned test)
Description: as §15

[13] = target: T13, ERBB2 (V777L) (Homo sapiens, UniProt P04626, V777L); assay: as above; type: biochemical; conditions: room temperature 2 h, 10 concentration gradients
T13 construct: purchased Reaction Biology Corporation (commissioned test)
Description: as §15

[14] = tested on: EGFR D770_N771insNPG BaF3; assay: Proliferation inhibition assay on stable cell lines (CTG Assay); type: cell-based; conditions: Mus musculus, 72 hours, CellTiter-Glo
Description: (§1) Ba/F3, a mouse pro-B cell line dependent on interleukin-3, is a common system for studying kinases and kinase inhibitors. Recombinant expression of some protein kinases can make Ba/F3 cells no longer dependent on IL-3 for growth, and based on such properties, the inhibition of a compound on the proliferation of Ba/F3 cells expressing different target kinases can be detected, so as to reflect inhibitory effects of the compound on different kinase targets at the cellular level for kinase inhibitor screening.
(§2) CellTiter-Glo® Luminescent Cell Viability Assay was employed in this experiment to detect cell proliferation, and the specific principles are as follows:
(§3) Adenosine Tri-Phosphate (ATP) is a common energy carrier used in various life activities in nature and is the smallest unit of energy storage and transfer. In the CellTiter-Glo™ Live Cell Assay Kit, […] are used as detectors, which require the participation of ATP to generate light signals. After the CellTiter-Glo™ reagent is added to the cells, the luminescence value is measured. The light signal is proportional to the amount of ATP in the system, which is in turn positively correlated with the number of living cells. Therefore, by measuring the ATP content using the CellTiter-Glo kit, the viability of the cells and thus the level of cell proliferation can be reflected.
(§4) Cells were removed from the liquid nitrogen, quickly thawed in a water bath at 37 degree Celsius, lyophilization tubes were centrifuged at 1000 rpm, the supernatant of the lyophilized solution was discarded, and the cells were resuspended in RPMI1640+10% FBS medium and incubated in a cell culture incubator at 37 degree Celsius with a cell culture density maintaining at 2*10e5 to 2*10e6/ml at all times.
(§5) 1) The compound were serially diluted in DMSO in a compound formulation plate with a starting concentration of 1 or 10 mM and a gradient dilution of 3.
(§6) 2) A new compound formulation plate was prepared, 198 ul of RPMI160+10% FBS medium was added to each well, 2 ul/well of compound from the previous gradient-diluted compound formulation plate was transferred to this plate and mixed well, so that the highest starting compound concentration in this plate was […], and diluted by gradient (this plate was a 10* compound concentration dilution plate).
(§7) 1) Cells in logarithmic growth phase were taken, the supernatant was discarded by centrifugation, and the cells were re-suspended in a fresh RPMI1640 medium at a cell density of 2*10e4/ml.
(§8) 2) The re-suspended cells were inoculated into 2 96-well cell culture plates with white walls and clear bottom at 100 ul of cell suspension/well, and incubated overnight in a 37° C. cell incubator.
(§9) 3) The next day, one of the 96-well plates inoculated with cells were taken, 100 µl/well of cell titer glo assay reagent was added for 60 minutes, the value was read and defined as G0 data.
(§10) 4) Another parallel plate was taken, 11.1 ul/well of compound from the previously diluted 10* compound concentration dilution plate was added to this plate, so that the final concentration of compound in the cell assay plate started from 0.5 or 1 uM, which was 3-fold diluted for 9 concentration gradients. Additional DMSO control wells were set, and incubated in a 37° C. cell incubator for another 72 hours.
(§11) 5) The 96-well plate, in which cells were treated by the compound for 72 hrs, were taken from the incubator, 100 ul/well of cell titer glo assay reagent was added for 60 minutes, the value was read and defined as G3 data.
(§12) 6) The cell proliferation rate corresponding to each well was calculated according to the following formula
(§13) % prolifation=(G3 of the well of the compound to be tested−mean value of G)/(mean value of G3 of the DMSO control well−mean value of G0)*100.
(§14) Y=Bottom+(Top−Bottom)/(1+10^((Log IC50−X)*HillSlope))

[15] = tested on: EGFR D770_N771insSVD BaF3; assay: as above; type: cell-based; conditions: Mus musculus, 72 hours, CellTiter-Glo
Description: as §1, §2, §3, §4, §5, §6, §7, §8, §9, §10, §11, §12, §13, §14

[16] = tested on: EGFR G719A BaF3; assay: as above; type: cell-based; conditions: Mus musculus, 72 hours, CellTiter-Glo
Description: as §1, §2, §3, §4, §5, §6, §7, §8, §9, §10, §11, §12, §13, §14

[17] = tested on: EGFR H773_V774insH BaF3; assay: as above; type: cell-based; conditions: Mus musculus, 72 hours, CellTiter-Glo
Description: as §1, §2, §3, §4, §5, §6, §7, §8, §9, §10, §11, §12, §13, §14

[18] = tested on: EGFR L861Q BaF3; assay: as above; type: cell-based; conditions: Mus musculus, 72 hours, CellTiter-Glo
Description: as §1, §2, §3, §4, §5, §6, §7, §8, §9, §10, §11, §12, §13, §14

[19] = tested on: EGFR V769_D770insASV BaF3; assay: as above; type: cell-based; conditions: Mus musculus, 72 hours, CellTiter-Glo
Description: as §1, §2, §3, §4, §5, §6, §7, §8, §9, §10, §11, §12, §13, §14

[20] = target: T14, EGFR (D761Y) (Homo sapiens, UniProt P00533, D761Y); assay: Kinase spectrum evaluation, radiometric 33P-ATP kinase assay; type: biochemical; conditions: room temperature 2 h, 10 concentration gradients
T14 construct: purchased Reaction Biology Corporation (commissioned test)
Description: as §15

[21] = target: T15, EGFR (D770GY) (Homo sapiens, UniProt P00533, D770Y/INS769G); assay: as above; type: biochemical; conditions: room temperature 2 h, 10 concentration gradients
T15 construct: purchased Reaction Biology Corporation (commissioned test)
Description: as §15

[22] = target: T16, EGFR (G719D) (Homo sapiens, UniProt P00533, G719D); assay: as above; type: biochemical; conditions: room temperature 2 h, 10 concentration gradients
T16 construct: purchased Reaction Biology Corporation (commissioned test)
Description: as §15

[23] = target: T17, EGFR (L861Q) (Homo sapiens, UniProt P00533, L861Q); assay: as above; type: biochemical; conditions: room temperature 2 h, 10 concentration gradients
T17 construct: purchased Reaction Biology Corporation (commissioned test)
Description: as §15

T3 sequence (P00533 with tags, fused parts or gaps INS763FQEA limits assumed): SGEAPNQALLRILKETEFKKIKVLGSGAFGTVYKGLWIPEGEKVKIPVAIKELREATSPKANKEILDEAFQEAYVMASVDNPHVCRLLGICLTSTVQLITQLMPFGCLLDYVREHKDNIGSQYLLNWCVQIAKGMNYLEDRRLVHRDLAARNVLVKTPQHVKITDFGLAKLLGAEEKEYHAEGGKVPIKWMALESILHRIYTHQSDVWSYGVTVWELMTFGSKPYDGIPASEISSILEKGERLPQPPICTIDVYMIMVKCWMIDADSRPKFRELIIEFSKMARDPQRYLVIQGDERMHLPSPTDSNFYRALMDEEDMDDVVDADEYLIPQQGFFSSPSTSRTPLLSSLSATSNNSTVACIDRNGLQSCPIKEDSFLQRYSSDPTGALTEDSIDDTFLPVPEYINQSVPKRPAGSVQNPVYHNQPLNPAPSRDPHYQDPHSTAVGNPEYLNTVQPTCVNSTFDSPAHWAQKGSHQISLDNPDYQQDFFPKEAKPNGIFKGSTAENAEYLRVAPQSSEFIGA
T6 sequence (P00533 with tags, fused parts or gaps INS770NPG limits assumed): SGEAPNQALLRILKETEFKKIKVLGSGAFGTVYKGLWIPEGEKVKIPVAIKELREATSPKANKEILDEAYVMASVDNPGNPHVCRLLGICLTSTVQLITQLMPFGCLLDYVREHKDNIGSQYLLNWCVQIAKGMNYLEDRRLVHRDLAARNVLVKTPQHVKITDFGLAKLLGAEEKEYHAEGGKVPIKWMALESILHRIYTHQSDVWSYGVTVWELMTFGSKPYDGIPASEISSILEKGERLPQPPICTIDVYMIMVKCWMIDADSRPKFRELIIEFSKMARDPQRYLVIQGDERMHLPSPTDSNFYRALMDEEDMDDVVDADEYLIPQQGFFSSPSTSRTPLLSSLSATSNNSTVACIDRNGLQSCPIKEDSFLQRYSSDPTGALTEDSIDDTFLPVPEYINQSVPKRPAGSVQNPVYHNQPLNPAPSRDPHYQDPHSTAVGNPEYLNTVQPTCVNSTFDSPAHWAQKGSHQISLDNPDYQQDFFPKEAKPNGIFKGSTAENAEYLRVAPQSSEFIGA
T11 sequence (P04626 23-1255 D769Y): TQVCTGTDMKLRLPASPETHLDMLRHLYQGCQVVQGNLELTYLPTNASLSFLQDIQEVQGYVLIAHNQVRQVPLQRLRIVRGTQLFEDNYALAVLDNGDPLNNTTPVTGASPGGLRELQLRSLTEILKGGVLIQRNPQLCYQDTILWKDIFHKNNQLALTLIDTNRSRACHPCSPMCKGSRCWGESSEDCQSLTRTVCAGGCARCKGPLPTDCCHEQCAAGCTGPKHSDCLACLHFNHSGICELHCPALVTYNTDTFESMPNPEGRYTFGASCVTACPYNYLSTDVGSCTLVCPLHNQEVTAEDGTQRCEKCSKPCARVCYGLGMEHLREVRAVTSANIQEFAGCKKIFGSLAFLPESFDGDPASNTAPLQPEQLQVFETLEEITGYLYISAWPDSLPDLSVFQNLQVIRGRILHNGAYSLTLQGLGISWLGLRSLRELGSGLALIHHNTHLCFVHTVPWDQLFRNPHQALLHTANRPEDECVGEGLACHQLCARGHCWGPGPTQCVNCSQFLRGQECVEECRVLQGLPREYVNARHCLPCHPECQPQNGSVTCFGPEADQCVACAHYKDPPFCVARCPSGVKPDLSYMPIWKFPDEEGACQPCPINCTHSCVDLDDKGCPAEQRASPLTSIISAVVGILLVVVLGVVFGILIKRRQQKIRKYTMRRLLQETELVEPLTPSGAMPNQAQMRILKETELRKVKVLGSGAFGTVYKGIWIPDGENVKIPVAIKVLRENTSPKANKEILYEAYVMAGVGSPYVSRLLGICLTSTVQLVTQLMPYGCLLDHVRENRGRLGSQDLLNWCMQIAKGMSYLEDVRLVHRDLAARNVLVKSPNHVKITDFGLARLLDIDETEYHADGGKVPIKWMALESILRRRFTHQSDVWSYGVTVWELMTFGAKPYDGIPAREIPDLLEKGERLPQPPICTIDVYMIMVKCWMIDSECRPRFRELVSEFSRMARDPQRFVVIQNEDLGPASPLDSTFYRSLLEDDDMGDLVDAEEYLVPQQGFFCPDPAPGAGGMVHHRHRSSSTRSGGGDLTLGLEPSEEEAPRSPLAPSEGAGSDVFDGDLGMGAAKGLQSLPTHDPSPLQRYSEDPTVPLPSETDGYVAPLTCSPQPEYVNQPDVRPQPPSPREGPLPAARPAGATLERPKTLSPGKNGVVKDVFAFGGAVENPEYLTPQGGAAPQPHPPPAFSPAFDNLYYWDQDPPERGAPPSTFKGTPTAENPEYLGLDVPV
T12 sequence (P04626 with tags, fused parts or gaps INS777CG limits assumed): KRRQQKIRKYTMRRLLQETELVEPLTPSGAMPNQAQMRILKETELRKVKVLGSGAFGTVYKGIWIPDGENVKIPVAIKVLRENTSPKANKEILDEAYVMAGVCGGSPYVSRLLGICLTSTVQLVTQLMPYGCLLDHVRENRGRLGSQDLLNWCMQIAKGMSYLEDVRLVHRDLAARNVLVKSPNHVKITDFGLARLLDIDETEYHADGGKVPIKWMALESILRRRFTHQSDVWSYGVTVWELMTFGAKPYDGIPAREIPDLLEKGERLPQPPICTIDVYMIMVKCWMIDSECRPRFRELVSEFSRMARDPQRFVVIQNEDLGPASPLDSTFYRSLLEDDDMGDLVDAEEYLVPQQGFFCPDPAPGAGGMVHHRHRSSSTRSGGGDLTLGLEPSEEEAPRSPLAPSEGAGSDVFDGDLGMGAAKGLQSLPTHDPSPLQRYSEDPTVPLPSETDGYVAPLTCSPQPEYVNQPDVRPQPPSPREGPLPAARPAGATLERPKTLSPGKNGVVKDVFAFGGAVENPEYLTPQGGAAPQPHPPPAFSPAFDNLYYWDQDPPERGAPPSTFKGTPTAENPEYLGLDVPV
T13 sequence (P04626 23-1255 V777L): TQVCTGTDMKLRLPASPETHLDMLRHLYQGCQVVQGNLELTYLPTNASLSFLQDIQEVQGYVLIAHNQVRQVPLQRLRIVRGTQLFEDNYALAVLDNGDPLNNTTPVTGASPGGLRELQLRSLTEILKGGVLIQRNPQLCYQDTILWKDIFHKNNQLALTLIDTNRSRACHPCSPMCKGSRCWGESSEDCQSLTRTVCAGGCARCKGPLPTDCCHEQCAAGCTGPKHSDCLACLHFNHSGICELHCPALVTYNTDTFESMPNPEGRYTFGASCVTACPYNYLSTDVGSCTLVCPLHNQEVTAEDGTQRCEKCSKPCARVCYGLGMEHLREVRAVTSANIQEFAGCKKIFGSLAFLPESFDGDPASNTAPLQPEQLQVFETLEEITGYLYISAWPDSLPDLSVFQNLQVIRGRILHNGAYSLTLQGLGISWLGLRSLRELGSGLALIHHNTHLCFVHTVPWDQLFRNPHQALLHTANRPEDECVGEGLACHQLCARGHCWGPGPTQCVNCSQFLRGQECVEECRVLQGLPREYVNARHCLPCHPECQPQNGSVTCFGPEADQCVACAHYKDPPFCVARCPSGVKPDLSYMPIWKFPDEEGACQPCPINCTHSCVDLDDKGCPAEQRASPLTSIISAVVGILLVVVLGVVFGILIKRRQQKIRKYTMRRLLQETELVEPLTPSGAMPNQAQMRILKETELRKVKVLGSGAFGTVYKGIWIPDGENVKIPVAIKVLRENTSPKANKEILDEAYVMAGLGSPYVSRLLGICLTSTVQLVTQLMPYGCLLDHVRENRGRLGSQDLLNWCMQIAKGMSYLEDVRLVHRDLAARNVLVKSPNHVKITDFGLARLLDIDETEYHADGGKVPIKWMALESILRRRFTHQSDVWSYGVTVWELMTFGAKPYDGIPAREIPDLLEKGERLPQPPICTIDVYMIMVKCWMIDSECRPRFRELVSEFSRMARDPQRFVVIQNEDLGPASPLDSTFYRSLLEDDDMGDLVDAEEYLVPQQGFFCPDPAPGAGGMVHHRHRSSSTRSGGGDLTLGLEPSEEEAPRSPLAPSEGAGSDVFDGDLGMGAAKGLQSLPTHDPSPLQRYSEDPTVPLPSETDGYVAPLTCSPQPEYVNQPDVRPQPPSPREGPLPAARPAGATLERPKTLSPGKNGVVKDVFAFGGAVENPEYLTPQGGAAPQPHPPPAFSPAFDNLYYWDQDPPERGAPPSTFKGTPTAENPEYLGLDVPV
T2 sequence (P00533 with tags, fused parts or gaps INS763FHEA limits assumed): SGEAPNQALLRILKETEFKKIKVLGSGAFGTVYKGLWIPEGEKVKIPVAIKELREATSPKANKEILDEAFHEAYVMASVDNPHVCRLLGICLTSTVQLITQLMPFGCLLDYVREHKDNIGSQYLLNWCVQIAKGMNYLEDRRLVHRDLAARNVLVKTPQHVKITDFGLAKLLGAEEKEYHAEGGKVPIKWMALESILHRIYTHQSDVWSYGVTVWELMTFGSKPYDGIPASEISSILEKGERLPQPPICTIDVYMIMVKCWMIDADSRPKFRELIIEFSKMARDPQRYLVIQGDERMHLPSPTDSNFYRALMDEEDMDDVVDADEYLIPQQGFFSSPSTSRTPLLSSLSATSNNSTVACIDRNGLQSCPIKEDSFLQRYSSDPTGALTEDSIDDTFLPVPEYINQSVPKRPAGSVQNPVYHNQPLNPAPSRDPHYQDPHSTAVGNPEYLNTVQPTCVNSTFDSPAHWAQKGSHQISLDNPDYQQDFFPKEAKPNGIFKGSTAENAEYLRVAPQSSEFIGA

IC50 [1]: 0.08 nM
IC50 [2]: 0.4 nM
IC50 [3]: 0.29 nM
IC50 [4]: 0.84 nM
IC50 [5]: 0.29 nM
IC50 [6]: 0.23 nM
IC50 [7]: 0.49 nM
IC50 [8]: 0.51 nM
IC50 [9]: 0.36 nM
IC50 [10]: 0.17 nM
IC50 [11]: 0.35 nM
IC50 [12]: 0.22 nM
IC50 [13]: 0.31 nM
GI50 [14]: 0.99 nM
GI50 [15]: 5.59 nM
GI50 [16]: 0.58 nM
GI50 [17]: 5.42 nM
GI50 [18]: 0.98 nM
GI50 [19]: 1.63 nM
SMILES: C=CC(=O)Nc1cccc(-n2c(=O)c(-c3ccccc3)nc3cnc(Nc4ccc(N5CCN(C)CC5)cc4OC)nc32)c1 [Compound 1]

IC50 [2]: 0.67 nM
IC50 [3]: 0.35 nM
IC50 [20]: 0.34 nM
IC50 [6]: 0.52 nM
IC50 [7]: 0.67 nM
IC50 [21]: 0.28 nM
IC50 [8]: 1.09 nM
IC50 [22]: 2.19 nM
IC50 [9]: 1.45 nM
IC50 [23]: 2.05 nM
IC50 [11]: 0.79 nM
IC50 [12]: 0.35 nM
IC50 [13]: 0.78 nM
SMILES: C=CC(=O)Nc1cccc(-n2c(=O)c(-c3ccccc3)nc3cnc(Nc4ccc(N(C)CCN(C)C)cc4OC)nc32)c1 [compound A]

GI50 [14]: 1.53 nM
GI50 [15]: 4.73 nM
GI50 [16]: 4.66 nM
GI50 [17]: 4.44 nM
GI50 [18]: 2.55 nM
GI50 [19]: 1.49 nM
SMILES: C=CC(=O)Nc1cc(Nc2ncc(C(=O)OC(C)C)c(-c3cn(C)c4ccccc34)n2)c(OC)cc1N(C)CCN(C)C [TAK788, Mobocertinib]

Continued, compound first:

SMILES: C=CC(=O)Nc1cccc(-n2c(=O)c(-c3ccccc3)nc3cnc(Nc4ccc(N5CCN(C)CC5)c(OC)c4)nc32)c1 [compound B]
IC50 [2]: 1.56 nM
IC50 [3]: 0.78 nM
IC50 [20]: 0.78 nM
IC50 [6]: 1.23 nM
IC50 [7]: 1.89 nM
IC50 [21]: 0.76 nM
IC50 [8]: 1.04 nM
IC50 [22]: 0.82 nM
IC50 [9]: 0.97 nM
IC50 [23]: 1.67 nM
IC50 [11]: 0.77 nM
IC50 [12]: 1.56 nM
IC50 [13]: 2.05 nM

SMILES: C=CC(=O)Nc1cccc(-n2c(=O)c(C3CCCCC3)nc3cnc(Nc4ccc(N5CCN(C)CC5)cc4OC)nc32)c1 [compound C]
IC50 [2]: 0.94 nM
IC50 [3]: 0.45 nM
IC50 [20]: 0.99 nM
IC50 [6]: 3.67 nM
IC50 [7]: 2.47 nM
IC50 [21]: 0.97 nM
IC50 [8]: 1.79 nM
IC50 [22]: 3.78 nM
IC50 [9]: 2.75 nM
IC50 [23]: 0.93 nM
IC50 [11]: 4.58 nM
IC50 [12]: 2.76 nM
IC50 [13]: 1.63 nM

SMILES: C=CC(=O)Nc1cccc(-n2c(=O)c(-c3ccc(OC)cc3)nc3cnc(Nc4ccc(N5CCN(C)CC5)cc4OC)nc32)c1 [compound E]
IC50 [2]: 0.77 nM
IC50 [3]: 2.37 nM
IC50 [20]: 0.62 nM
IC50 [6]: 1.74 nM
IC50 [7]: 1.58 nM
IC50 [21]: 1.01 nM
IC50 [8]: 1.64 nM
IC50 [22]: 1.64 nM
IC50 [9]: 1.67 nM
IC50 [23]: 0.88 nM
IC50 [11]: 2.59 nM
IC50 [12]: 3.78 nM
IC50 [13]: 0.82 nM

SMILES: C=CC(=O)N1CCC(Oc2cc3c(Nc4ccc(Cl)c(Cl)c4F)ncnc3cc2OC)CC1 [Poziotinib]
IC50 [11]: 0.21 nM
IC50 [12]: 0.09 nM
IC50 [13]: 0.21 nM

SMILES: C=CC(=O)Nc1cccc(-n2c(=O)c(-c3ccc(F)cc3)nc3cnc(Nc4ccc(N5CCN(C)CC5)cc4OC)nc32)c1 [compound D]
IC50 [2]: 0.57 nM
IC50 [3]: 1.92 nM
IC50 [20]: 0.45 nM
IC50 [6]: 2.78 nM
IC50 [7]: 0.99 nM
IC50 [21]: 0.87 nM
IC50 [8]: 2.41 nM
IC50 [22]: 2.91 nM
IC50 [9]: 3.02 nM
IC50 [23]: 1.04 nM
IC50 [11]: 0.78 nM
IC50 [12]: 1.96 nM
IC50 [13]: 1.87 nM
